Assay results as given in patent US20090318544A1, “CRYSTALLINE FORM OF (2S)-(-)-N-(6-CHLORO-2,3-DIHYDRO-BENZO[1,4]DIOXIN-2-YLMETHYL)-SULFAMIDE” (priority 2008, published 2009).

Experiments:
Assay type in all cases: physicochemical
[1] = TGA (Thermogravimetric Analysis) weight loss
Method: The weight loss for the sample was obtained using a TA Instruments TGA […] thermogravimetric calorimeter. The sample was analyzed as received and was program heated from ambient to 120° C. at 10° C./min under nitrogen purge.

[2] = DVS (Dynamic Vapor Sorption) cycling humidity, hygroscopicity; details: full cycle in step mode at 25° C., 0-90% RH in 10% RH increments
Method: (§1) A representative sample of crystalline form (IS-VI) was subjected to DVS (Dynamic Vapor Sorption) cycling humidity conditions to determine hydgroscopicity, as shown in FIG. 4. The sample was analyzed using a Surface Measurement System DVS-1 Dynamic Vapor Sorption System. The sample was analyzed full cycle in step mode at 25° C. from 0-90% RH in 10% RH increments. The equilibration conditions set were: dm/dt of 0.0007%/min, dm/dt window of 5 minutes, and minimum and maximum stages of 15 and 360 minutes. Data was collected in 1 minute intervals. Nitrogen was used as the carrier gas. The results from the DVS measurements indicate that crystalline form (IS-VI) is non-hygoscopic

[3] = Stability to temperature and humidity, concluded from DSC, TGA and DVS results; details: solid state; conclusion from the results above
Method: DSC (Differential Scanning Calorimetry) was measured for a representative sample of crystalline form (IS-VI), as shown in FIG. 2. DSC analysis of the sample was performed using a TA Instruments DSC Q1000 differential scanning calorimeter. The sample was analyzed as received in an open TA Instrument aluminum sample pan and was program heated from ambient to 120° C. at 10° C./min under nitrogen purge.
The weight loss for the sample was obtained using a TA Instruments TGA Q5000IR thermogravimetric calorimeter. The sample was analyzed as received and was program heated from ambient to 120° C. at 10° C./min under nitrogen purge.
as §1

hydrate state indicated by TGA ([1]; ambient to 120° C. at 10° C./min under nitrogen purge): non-hydrate
weight loss by TGA ([1]; heated from ambient to 120° C. at 10° C./min under nitrogen purge, ambient temperature up to and including melting): No weight loss was observed
hygroscopicity by DVS [2]: non-hygoscopic
SMILES: NS(=O)(=O)NC[C@H]1COc2cc(Cl)ccc2O1 [crystalline form (IS-VI), (2S)-(−)-N-(6-chloro-2,3-dihydro-benzo[1,4]dioxin-2-ylmethyl)-sulfamide]
stability to temperature and humidity [3]: exhibits stability to temperature and humidity
